# How the values were obtained:
# [1] = target: T1, hGnRH-Receptor (Homo sapiens, UniProt P30968); experiment: GnRH receptor assay: competition binding with 125I-labeled buserelin on cell membranes; details: competition with 125I-buserelin
# T1 construct: expressed in transfected cells; host or cells: CHO-3 cells (Schmid et al., J. Biol. Chem. 275 (2000), 9193-9200), membrane preparation
# T1 sequence (P30968 1-328): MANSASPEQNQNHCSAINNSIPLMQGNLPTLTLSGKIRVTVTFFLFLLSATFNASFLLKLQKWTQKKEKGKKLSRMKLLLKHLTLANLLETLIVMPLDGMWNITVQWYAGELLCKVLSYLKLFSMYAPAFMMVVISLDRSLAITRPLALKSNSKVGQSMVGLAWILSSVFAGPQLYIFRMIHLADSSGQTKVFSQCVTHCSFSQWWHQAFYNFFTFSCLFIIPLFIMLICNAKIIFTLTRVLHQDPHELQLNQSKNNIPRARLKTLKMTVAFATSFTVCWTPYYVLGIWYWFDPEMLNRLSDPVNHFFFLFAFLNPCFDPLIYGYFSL
# Method: Buserelin is ordered from Welding (Frankfurt/Main, Germany). The compound is labeled with ^125I by use of the chloramine T-method and Na^125I (4000 Ci/mmol; Amersham-Buchler, Brunswick, Germany). The labeled substance is purified by reverse phase HPLC on a Spherisorb ODS II column (250×4 mm, particle size 3 μm) by elution with 50% acetonitrile/0.15% trifluoroacetic acid at a flow rate of 0.5 ml/minute. The specific activity is 2000 Ci/mmol.
# Alpha T3-1 cells (Bilezikjian et al., Mol. Endocrinol 5 (1991), 347–355) are cultivated in DMEM medium (Gibco-BRL, Eggenstein-Leopoldshafen, Germany) with penicillin (100 I.U./ml), streptomycin (0.1 mg/ml) and glutamine (0.01 mol/l) and 10% fetal calf serum (FCS; PAA Laboratories, Coelbe, Germany) on plastic tissue culture plates (Nunc, 245×245×20 mm). CHO-3 cells (Schmid et al., J. Biol. Chem. 275 (2000), 9193–9200) are cultivated under identical conditions, apart from the fact that Ham's F12 medium (Gibco-BRL) is used.
# Ten confluent cell culture plates are flushed twice with 50 ml of phosphate-buffered salt solution (PBS). The cells are harvested by scraping them off with a rubber scraper in 5 ml of PBS and sedimented by centrifuging in a laboratory centrifuge (Heraeus) at 800 rpm for 10 minutes. The cell pellet is resuspended in 5 ml of 0.25 mol/l of saccharose/0.01 mol/l of triethanolamine, pH 7.4. The cells are lysed by three cycles of freezing in dry ice/ethanol bath and thawing at room temperature. The lysate is centrifuged at 900 rpm for 10 minutes, and the sediment is discarded. The supernatant is centrifuged at 18,000 rpm in a Sorvall SS34 rotor for 30 minutes. The pellet (cell membranes) is suspended by Potters in 5 ml of assay buffer (0.25 mol/l of saccharose, 0.01 mol/l of triethanolamine, pH 7.5, 1 mg/ml of ovalbumin) and stored in 200 μl of aliquots at −20° C. The determination of protein is carried out according to the Bradford method (Anal. Biochem. 72 (1976), 248–254).
# Binding studies for competition curves are performed as triplicates. A test sample contains 60 μl of cell membrane suspension (10 μg of protein for αT3-1 cells or 40 μg of protein for CHO3 cells), 20 μl of ^125I-labeled buserelin (100,000 Ipm per sample for competition curves and between 1,500 and 200,000 Ipm for saturation experiments) and 20 μl of test buffer or test compound solution. The test compounds are dissolved in distilled water or 50% ethanol. Serial dilutions (5×10^−6 mol/l to […]) are produced in test buffer. The unspecific binding is determined in the presence of excess unlabeled buserelin (10^−6 mol/1). The test samples are incubated for 30 minutes at room temperature. Bonded and free ligands are separated by filtration (Whatman GF/C-filter, 2.5 cm diameter) with use of an Amicon 10x collecting device and washed twice with 5 ml of 0.02 mol/l of Tris/HCl, pH 7.4. The filters are moistened with 0.3% polyethylenimine (Serva; Heidelberg, Germany) for 30 minutes to reduce the unspecific binding. The radioactivity that was held up by the filter is determined in a 5-channel gamma-counter (Wallac-LKB 1470 Wizard).
# In the table below, the IC50 values that are obtained for the preferred compounds, as defined above, are indicated.
# [2] = target: T2, GnRH receptor (Homo sapiens, UniProt P30968); experiment: Ca2+ release, human; type: cell-based; details: read-out: Ca^2+ Release Human IC50
# T2 sequence (P30968 1-328): T1 sequence (P30968 1-328)
# [3] = target: T2, GnRH receptor; experiment: Receptor binding assay with 125I-triptorelin on transfected LTK cells; details: competition with 125I-triptorelin, whole LTK cells, 60 minutes at 37° C.
# Method: ^125I-Triptorelin [^125I-(D)-Trp6-GnRH] is ordered from the Biotrend Company (Cologne, Germany). The specific activity in each case is 2.13 Ci/mmol. All other chemicals are ordered from commercial sources at the highest available purity.
# Transfixed LTK′ cells (ATCC No. CCL-11.3) are cultivated in DMEM medium (Invitrogen Life Technologies, Germany) with penicillin (100 I.U./ml), streptomycin (0.1 mg/ml) and glutamine (0.01 mol/l) and 10% fetal calf serum (FCS; Invitrogen Life Technologies, Germany) on plastic tissue culture plates (Nunc, Germany, 245×245×20 nun).
# 80% confluent cell culture plates are washed twice with 50 ml of phosphate-buffered salt solution (PBS) and dissolved below with 0.01 M EDTA solution. The cells are pelletized by centrifuging at 200×g for 5 minutes in a laboratory centrifuge (Kendro, Germany). The cell pellet is resuspended in 3 ml of binding medium (DMEM; 10 mmol of Hepes; 0.5% BSA; 0.1% NaN3; 1 g/l of bacitracin (freshly added, stock 100×); 0.1 g/l of SBTI (freshly added, stock 1000×), and the cell count is determined by means of trypan blue staining in a Neubauer counting chamber. The cell suspension is set with binding medium to a concentration of 5×10^5 Z/0.05 ml.
# Binding tests for competition curves are performed as duplicates. The test substances are used as 10 mmol DMSO solutions. They are diluted with binding medium to 4× the final concentration used. 25 μl of the substance dilution is mixed with 25 μl of tracer solution (^125I-triptorelin). The concentration of tracer is set to about 50,000 cpm (measured in Cobra II, γ-counter, PE Liefe Science, Germany) in the final reaction volume of 100 μl.
# 200 μl of a silicone/paraffin oil mixture (84%:16%) is introduced into 650 μl pointed-bottom tubes (Roth, Germany). 50 μl of the cell suspension is pipetted thereto and subsequently 50 μl of the test substance/tracer mixture. The tubes are sealed and incubated for 60 minutes at 37° C. in an incubator that rotates via the top. After incubation, the samples are centrifuged in a centrifuge (Kendro, Germany) at 900 rpm and subsequently flash-frozen in liquid N2. The tip with the cell pellet is cut off and inserted into the prepared counting tube (Roth, Germany). The remainder of the pointed-bottom tube with the remaining supernatant is also inserted into a counting tube. The measurement is made in a γ-counter for 1 minute/sample.
# The evaluation of the samples is carried out after calculating the specific bond in comparison to untreated cells, after the unspecific bond (excess unlabeled ligand, 1 mmol) is removed by means of GraphPad Prism (GraphPad Software Inc., USA).
Compound,IC50 [1],IC50 [2],EC50 [3]
"c1ccc(CCCC2(CNCc3ccccn3)CCc3[nH]c4ccccc4c3C2)cc1 (centres unmarked) [Compound 279, 2,3,4,9-Tetrahydro-3-(3-phenylpropyl)-N-(2-pyridinylmethyl)-1H-carbazole-3-methanamine]",2000 nM,3000 nM,
"Clc1cc(Cl)c2[nH]c3c(c2c1)CC(CCCc1ccccc1)(CNCc1ccccn1)CC3 (centres unmarked) [Compound 283, 6,8-dichloro-2,3,4,9-tetrahydro-3-(3-phenylpropyl)-N-(2-pyridinylmethyl)-1H-carbazole-3-methanamine]",1000 nM,3000 nM,
"CC(C)[C@@H](CO)NCC1(CCCc2ccccc2)CCc2[nH]c3ccccc3c2C1 (stereo partly drawn) [Compound 284, (2S)-3-Methyl-2-[[[2,3,4,9-tetrahydro-3-(3-phenylpropyl)-1H-carbazol-3-yl]methyl]-amino]-1-butanol]",7000 nM,7000 nM,
"CC[C@H](C)[C@H](NC(=O)OCc1ccccc1)C(=O)N[C@]1(C(=O)N[C@H](C(N)=O)C(C)(C)C)CCc2[nH]c3c(Cl)cc(Cl)cc3c2C1 [Compound 298, Phenylmethyl [(1S,2S)-1-[[[(3R)-3-[[[(1S)-1-(aminocarbonyl)-2,2-dimethylpropyl]amino]carbonyl]-6,8-dichloro-2,3,4,9-tetrahydro-1H-carbazol-3-yl]amino]car-bonyl]-2-methylbutyl]carbamate]",,,288 nM
"CC[C@H](C)[C@H](NC(=O)[C@@]1(NC(=O)[C@H](CCc2ccc(O)cc2)NC(=O)OCc2ccccc2)CCc2[nH]c3c(Cl)cc(Cl)cc3c2C1)C(N)=O [Compound 303, Phenylmethyl [(1S)-1-[[[(3R)-3-[[[(1S,2S)-1-(aminocarbonyl)-2-methylbutyl]amino]carbonyl]-6,8-dichloro-2,3,4,9-tetrahydro-1H-carbazol-3-yl]amino]car-bonyl]-3-(4-hydroxyphenyl)-propyl]carbamate]",,,21 nM
"CC[C@H](C)[C@H](NC(=O)[C@@]1(NC(=O)[C@H](CC(C)C)NC(=O)OCc2ccccc2)CCc2[nH]c3c(Cl)cc(Cl)cc3c2C1)C(N)=O [Compound 305, Phenylmethyl [(1S)-1-[[[(3R)-3-[[[(1S,2S)-1-(aminocarbonyl)-2-methylbutyl]amino]carbonyl]-6,8-dichloro-2-3,4,9-tetrahydro-1H-carbazol-3-yl]amino]car-bonyl]-3-methylbutyl]carbamate]",,,56 nM
"CC(C)C[C@H](NC(=O)[C@@]1(NC(=O)[C@H](CC(C)C)NC(=O)OCc2ccccc2)CCc2[nH]c3c(Cl)cc(Cl)cc3c2C1)C(N)=O [Compound 306, Phenylmethyl [(1S)-1-[[[(3R)-3-[[[(1S)-1-(aminocarbonyl)-3-methylbutyl]amino]carbonyl]-6,8-dichloro-2,3,4,9-tetrahydro-1H-carbazol-3-yl]amino]car-bonyl]-3-methylbutyl]carbamate]",,,77 nM

# Continued, values first:
IC50 [1],IC50 [2],EC50 [3],Compound
700 nM,500 nM,,"COc1cccc2c3c([nH]c12)CC[C@](NC(=O)Cc1ccc(Cl)cc1)(C(=O)N1CCC[C@H]1C(N)=O)C3 [Compound 189a, (2S)-1-[[(3R)-3-[[(4-Chlorophenyl)acetyl]-amino]-2,3,4,9-tetrahydro-8-methoxy-1H-carbazol-3-yl]carbonyl]-2-pyrrolidine-carboxamide]"
2000 nM,500 nM,,"CC[C@H](C)[C@H](NC(=O)OCc1ccccc1)C(=O)N[C@]1(C(=O)N2C3CCCCC3C[C@H]2C(N)=O)CCc2[nH]c3ccccc3c2C1 (stereo partly drawn) [Compound 190a, Phenylmethyl [(1S,2S)-1-[[[(3R)-3-[[(2S)-2-(aminocarbonyl)octahydro-1H-indol-1-yl]-carbonyl]-2,3,4,9-tetrahydro-1H-carbazol-3-yl]-amino]carbonyl]-2-methylbutyl]carbamate]"
2500 nM,3000 nM,,"CC[C@H](C)[C@H](NC(=O)OCc1ccccc1)C(=O)N[C@]1(C(=O)N[C@H](C(=O)NC)C(C)C)CCc2[nH]c3ccccc3c2C1 [Compound 222a, Phenylmethyl [(1S,2S)-2-methyl-1-[[[(3R)-2,3,4,9-tetrahydro-3-[[[(1S)-2-methyl-1-[(methylamino)carbonyl]-propyl]amino]carbonyl]-1H-carbazol-3-yl]amino]carbonyl]-butyl]carbamate]"
9000 nM,1000 nM,,"CC(C)[C@H](NC(=O)[C@@]1(NCCCCCCc2ccccc2)CCc2[nH]c3ccccc3c2C1)C(N)=O [Compound 234a, (3R)-N-[(1S)-1-(Aminocarbonyl)-2-methylpropyl]-2,3,4,9-tetrahydro-3-[(6-phenylhexyl)amino]-1H-carbazole-3-carboxamide]"
400 nM,500 nM,,"CC[C@H](C)[C@H](NC(=O)OCc1ccccc1)C(=O)N[C@]1(C(=O)N[C@H](CO)C(C)C)CCc2[nH]c3ccccc3c2C1 [Compound 267a, Phenylmethyl [(1S,2S)-1-[[[(3R)-3-[[[(1S)-1-(hydroxymethyl)-2-methylpropyl]amino]-carbonyl]-2,3,4,9-tetrahydro-1H-carbazol-3-yl]amino]carbonyl]-2-methylbutyl]carbamate]"
